Data on six compounds can be found in US10813904B2, “Small molecule anticancer agents” (University of Florida Research Foundation, Incorporated, priority 2017, dated 2020).

What all share (assay type): cell-based
Experiment [1] relates to BT474 cells. The experiment is described as follows: Immunoblot analysis of BT474 cell extracts. The procedure: (§1) The following cell lines were purchased from American Type Culture Collection (ATCC) (Manassas, Va.): MDA-MB-468, BT474, T47D, SKBR3, MDA-MB-231, HCC1954, HEK 293, TSC2-Ang1, and BxPC3. The HCI-012 cell line was derived from the HCI-012 Patient-Derived Xenograft tumor line provided by Dr. Alana Welm using conditional cell reprogramming. Wild type and eIF2α[S51A] homozygous knock-in Mouse Embryo Fibroblasts (MEFs) were described previously.
(§2) Cells were grown in Dulbecco's modified Eagle's medium (GE Healthcare Life Sciences Logan, Utah) supplemented with 10% fetal bovine serum (10% FBS-DMEM) in a humidified 37° C. incubator with 5% CO2. Cell lysates were prepared using a buffer containing 1% Triton X100, 20 mM HEPES (pH 7.4), 1 mM EDTA, 1 mM EGTA, 0.1% 3-mercaptoethanol, 5% glycerol, 10 nM microcystin, 200 μM Na3VO4 and 40 mM Na2H2P2O7 as described previously.
(§3) Immunoblot analysis was carried out using primary antibodies purchased from Santa Cruz Biotechnology (Dallas, Tex.) [Actin, sc-1616-R; ERK, sc-93; JNK, sc-572; P-JNK, sc-6254; Src, sc-18; EGFR, sc-03; GRP78, sc-13539; Phosphotyrosine (PY99), sc-7020], Cell Signaling Technology (Beverly, Mass.) [Akt, #4691; P-Akt[T308], #13038; P-Akt[S473], #9271; ATF4, #11815; CHOP, #2895; P-Src[Y527], #2105; EGFR, #4267; HER2, #2165; HER3, #4754; Calnexin, #2679; #13024; P-Erk, #9101; IRE1α, #3294; XBP1s, #12782; PARP, #9532; PDI, #3501; PERK, #5683; S6, #2212; P-S6, #2211; P-Src[Y416], #6943], BD Transduction Laboratories (San Jose, Calif.) [PAI-1, 612024], Millipore (Temecula, Calif.) [anti-phosphotyrosine (4G10), 05-321], and Sigma-Aldrich (St. Louis, Mo.) [anti-FLAG (M2), F3165]. To quantify immunoblot results, bands were analyzed using ImageJ (imagej.nih.gov/ij/) and each band was normalized to the corresponding Actin loading control band.
On the technique in general: Immunoblotting shows a protein as a band on a membrane.

Experiment [2] concerns Mouse Embryo Fibroblasts (MEFs). The experiment is described as follows: Immunoblot analysis of Mouse Embryo Fibroblasts. Particulars: 24 hours, thapsigargin 400 nM, tunicamycin 500 ng/ml; for Akt phosphorylation, wild type MEFs / ER stress response / UPR, wild type MEFs / PARP cleavage, wild type MEFs: RBF3 20 μM, DTT 5 mM. The procedure: as §1, §2, §3
In experiment [3] the test system is MDA-MB-468 cells. The experiment is described as follows: Immunoblot analysis of MDA-MB-468 cell extracts. To be noted: for ATF4 and CHOP expression: compared with 20 μM RBF3; for ER stress response / UPR activation / HER3 levels / Akt phosphorylation / PARP cleavage (cell death): 2-DOG 4 mM; for ER stress response / UPR activation / Akt phosphorylation / PARP cleavage (cell death): DTDO 20 μM. The protocol: as §1, §2, §3

The test system of experiment [4] is MDA-MB-468 or BT474 cells. The experiment is described as follows: Immunoblot analysis, MDA-MB-468 or BT474 cells (text does not separate the lines). To be noted: for DDA activation of the ER stress response when protein synthesis is inhibited: 20 μM RBF3 with 20 μM CHX or 5 μg/ml Puromycin. The procedure:
as §2, §3

In experiment [5] the test system is XBP1 mRNA splicing in MDA-MB-468 cells. The experiment is described as follows: RT-PCR of XBP1 mRNA splicing. Particulars: 24 hours; RBF3 20 μM, DTT 2 mM. The procedure:
RNA was isolated from MDA-MB-468 and BT474 cells with Trizol Reagent (Invitrogen) according to the manufacturer's instructions, and reverse transcribed to cDNA under the following conditions: 25° C. for 10 min, 42° C. for 30 min, and 95° C. for 5 min. PCR was performed using XBP1 and β-Actin primers. The primers used to amplify XBP1 are as follows: Forward: […] and Reverse: […]. The primers used to amplify (3-Actin are as follows: Forward: […] and Reverse: […]. Reactions were performed as follows: 96° C. for 5 min followed by 35 cycles of 95° C. for 45 sec, 60° C. for 1 min, and 72° C. for 30 sec. Reaction products were visualized on 3% agarose gels.

Where [6] appears, read: 24 hours, RBF3 20 μM, thapsigargin 400 nM.
Where [7] appears, read: RBF3 20 μM, thapsigargin 400 nM, DTT 2 mM.
[8] abbreviates: thapsigargin 400 nM, tunicamycin 500 ng/ml, DTT 2 mM.
Where [9] appears, read: 2.5 μM Gefitinib or Lapatinib, 24 hours.
Setting [10] is: 24 hours, RBF3 20 μM, 2-DOG 4 mM.

“Also recorded” adds a separate entry of the source.

As for `C/C=C(/C)C(=O)O[C@H]1C(C)=C2[C@H]([C@@H]1OC(=O)CCCCCCC)[C@@](C)(OC(C)=O)C[C@H](OC(=O)CCC)[C@@]1(O)[C@H]2OC(=O)[C@@]1(C)O` [thapsigargin], in experiment [1] (setting [6]), the “ATF4 and CHOP expression” value is reported as “strongly upregulated”. The PERK electrophoretic mobility entry in experiment [1] (24 hours, thapsigargin 400 nM) is reported as “more strongly decreased”. In addition, in experiment [2], the “Akt phosphorylation, wild type MEFs” value is recorded as “markedly suppressed”; the “ER stress response / UPR, wild type MEFs” value was “induced a robust UPR”; the “PARP cleavage, wild type MEFs” value is on record as “strongly upregulated”; the “CHOP, ATF4, and GRP78 upregulation in eIF2α[S51A] knock-in MEFs” value is “significantly blunted”. Moreover, in experiment [2], the “PARP cleavage or XBP1s upregulation, effect of S51A eIF2a mutation” value is on record as “did not affect”. Also, in experiment [3] (setting [7]), the XBP1s expression entry is reported as “more strongly than RBF3”. Moreover, the “ATF4 and CHOP expression” value in experiment [3] (setting [8]) is listed as “more effectively than RBF3”. In addition, the “ATF4 and CHOP expression” value in experiment [3] (thapsigargin 400 nM, tunicamycin 500 ng/ml, DTT 2 mM, listed as Thapsigargin) is on record as “more strongly than RBF3”.
With `COc1cc2ncnc(Nc3ccc(F)c(Cl)c3)c2cc1OCCCN1CCOCC1` [Gefitinib], in experiment [3] (setting [9]), the “CHOP expression, combination with RBF3” value is recorded as “cooperated with RBF3 to upregulate”; the “concentration of RBF3 required to downregulate HER3 levels and Akt phosphorylation, on co-treatment” value is reported as “lowered”.
Take `C[C@@H]1C[C@@H]([C@H](O)CC2CC(=O)NC(=O)C2)C(=O)[C@@H](C)C1` [CHX, cycloheximide]: the “HER2 expression, RBF3 with CHX” value in experiment [1] (24 hour, 20 μM RBF3, 20 μM CHX) is on record as “partially restored”. Besides, in experiment [4] (8 hours, 20 μM RBF3, 20 μM CHX), the “DDA-mediated downregulation of EGFR or HER3, with CHX” value is on record as “did not overcome”; the “RBF3-induced PARP cleavage and Akt dephosphorylation, with CHX” value is given as “partly overcame”. Further, the “DDA activation of the ER stress response when protein synthesis is inhibited” value in experiment [4] (8 hours) is on record as “reduced”. Further, the “CHX blockade of RBF3-induced PARP cleavage” value in experiment [4] (24 hour treatment) is on record as “less apparent”. Besides, in experiment [3] (2-16 hrs), the “RBF3-mediated UPR on co-treatment with CHX” value was “rapidly and persistently blocked”.
With `COc1ccc(C[C@H](N)C(=O)N[C@H]2[C@@H](O)[C@H](n3cnc4c(N(C)C)ncnc43)O[C@@H]2CO)cc1` [Puromycin, puromycin], in experiment [4] (8 hours), the “DDA activation of the ER stress response when protein synthesis is inhibited” value was “reduced”.
As to `O=CC[C@@H](O)[C@H](O)[C@H](O)CO` [2-DOG, 2-deoxyglucose], in experiment [1] (24 hours, 2-DOG 4 mM), the HER3 expression entry is “did not cause downregulation”, the PARP cleavage entry is on record as “did not increase cell death” and the UPR activation entry is reported as “strongly activated UPR”. Moreover, the Akt phosphorylation entry in experiment [1] (setting [10]) is on record as “did not cause downregulation”. Further, in experiment [3] (24 hours, DTT 2 mM), the “ER stress response / UPR activation” value was “strongly activated UPR”. In experiment [3] (24 hours, RBF3 20 μM, DTT 2 mM), the HER3 levels entry was “did not cause downregulation”, the Akt phosphorylation result is recorded as “did not cause downregulation” and the “PARP cleavage (cell death)” value is “did not increase cell death”.
On to `O[C@H](CS)[C@H](O)CS` (racemic) [DTT, dithiothreitol], for which, in experiment [1] (24 hours, RBF3 20 μM), the “EGFR and HER2 expression” value is “only does so in the MDA-MB-468 line”; the “XBP1s and GRP78 expression (ER stress markers)” value is listed as “increased”. For the same compound, in experiment [1] (setting [10]), the Akt phosphorylation result is recorded as “decreased”. In experiment [1] (setting [6]), the “ATF4 and CHOP expression” value is “little upregulation”. Further, in experiment [2], the “Akt phosphorylation, wild type MEFs” value is reported as “weakly suppressed”; the “ER stress response / UPR, wild type MEFs” value is “did not induce”; the “PARP cleavage, wild type MEFs” value was “induced PARP cleavage”. In addition, in experiment [4], the “concentrations that activate UPR / induce a similar level of ER stress” value is “millimolar concentrations”. The “ER stress response / UPR activation” value in experiment [3] (24 hours, DTT 2 mM) was “only weakly activated”. Besides, in experiment [3] (24 hours, RBF3 20 μM, DTT 2 mM), the GRP78 expression entry is recorded as “only weakly induces”, the HER3 levels result is listed as “less so; also recorded: induces downregulation”, the Akt phosphorylation entry was “suppresses” and the “PARP cleavage (cell death)” value is on record as “only weakly induces”. Moreover, the EGFR levels entry in experiment [3] (24 hours, RBF3 20 μM, thapsigargin 400 nM, tunicamycin 500 ng/ml, DTT 2 mM) is “induces downregulation”. In experiment [3] (setting [7]), the XBP1s expression entry is on record as “does not upregulate”. Moreover, in experiment [3] (setting [8]), the “ATF4 and CHOP expression” value is given as “does not upregulate”. The “IRE1-dependent XBP1 mRNA processing / splicing” value in experiment [5] is listed as “does not upregulate”.
